Assay results: US8309790B2, “Animal models for demyelination disorders” (University of Chicago, priority 2005, dated 2012)
“And” between values parts separate entries of the source, which are not always exact repeats. Identical values can stand only once.

Tests used:
[1] = system: corpus callosum of GFAP/tTA; TRE/IFN-γ; PERK+/− mice; assay: Remyelination after cuprizone in double transgenic mice on PERK+/+ or PERK+/− background; assay type: in vivo; conditions: for remyelinated axons: 9 weeks
Excerpt: The involvement of the ER stress response in the reduction caused by IFN-γ to remyelinate lesions was examined in transgenic mice that were generated to be heterozygous for a loss of function mutation in pancreatic ER kinase (PERK) (Harding, et al., (2001) Mol Cell 7:1153-1163), and to be temporally regulated for expressing INF-γ in the CNS. TRE/IFN-γ mice were first crossed with PERK+/− mice (Harding, et al. (2001) Mol. Cell 7: 1153-1163) on the C57BL/6 background to generate mice the carry the PERK mutation, and the resulting progeny were crossed to GFAP/tTA mice to obtain transgenic mice that were heterozygous for the PERK mutation. The effect of PERK on remyelination in the presence or absence of INF-γ was evaluated as evaluated as a function of the level of myelination of oligodendrocytes in remyelinating lesions and the number of oligodendrocytes present in the remyelinating lesion.
The extent of remyelination was assessed as described in the previous examples in the corpus callosum of PERK+/+ and PERK+/− mice that were made to express INF-γ (DOX− PERK+/+ and DOX− PERK+/−), and in mice in which the expression of INF-γ was repressed (DOX+ PERK+/+ and DOX+ PERK+/−). Remyelination was determined by electron microscopy, and was related to the number of CC1 positive oligodendrocytes and the level of caspase-3 expression in the corpus callosum of all animals. The level of caspase-3 was determined by immunohistochemical methods using anti capsase antibody (active-casoase-3 antibody, 1:50; Cel Signaling Technology) and according to the method described in Example 1. Demyelination was induced in six-week-old GFAP/tTA; TRE/IFN-γ double transgenic mice on a PERK+/− background that had been maintained on doxycycline, by simultaneously treating the mice with 0.2% cuprizone and releasing them from doxycycline (DOX− PERK+/−). Remyelination was allowed to occur by withdrawing cuprizone at week 6.

mice with EAE = assay: EAE, CNS delivery of INF-γ at the onset of EAE, double (PERK+/+) and triple (PERK+/−) mice; assay type: in vivo; conditions: for Mean of maximum clinical score (mean ± S.D.): 0-5 point scale; for Day of onset of disease (PID: postimmunization day): n = 25; for expression of iNOs, TNF-a, IL-2, IL-12 and IL-10 in the spinal cord: PID 14 (EAE onset), DOX− vs DOX+
[2] = system: Hippocampal organotypic cultures; assay: Hippocampal organotypic cultures (HOC), in vitro model of myelination, MBP Western blot; assay type: cell-based; conditions: 7 days of 100 U/ml IFN-γ exposure
Experimental: Our hypothesis is that the integrated stress response has the potential to protect oligodendrocytes from the harmful effects of the inflammatory response in patients with multiple sclerosis (MS). […] To test whether agents that prolong eIF2α phosphorylation might provide protection to oligodendrocytes against detrimental inflammatory factors, the effect of Salubrinol (Sal) in the presence of the immune cytokine IFN-γ was tested in an in vitro model of myelination.
HOCs, were prepared and maintained as described previously (Kunkler and Kraig (1997) J Cereb Blood Flow Metab. 17:26-43), and were maintained in vitro for 7 days before use. SAL at various concentrations was combined with 100 U/ml IFN-γ and added to the HOC cultures for 7 days. […] After 7 days of 100 U/ml IFN-γ exposure, the levels of MBP decreased approximately 80% in the HOCs (FIG. 29).

interferon-γ [IFN-γ]
remyelinated axons ([1]; DOX− PERK+/+ mice): 31.1%±7.6% | number of CC1 positive oligodendrocytes ([1]; DOX− PERK+/+ mice, corpus callosum, week 9): 123.2±27.5 /0.04 mm^2 | remyelinated axons ([1]; DOX− PERK+/− mice, 3 weeks after cuprizone removed): 15.6%±7.6% | CC1 positive oligodendrocytes in the corpus callosum ([1]; DOX− PERK+/− mice, week 9): only a few oligodendrocytes were detected | number of oligodendrocytes positive for caspase-3, DOX− PERK+/− relative to DOX− PERK+/+ ([1]; week 9): 2.3 times | Mean of maximum clinical score (mean ± S.D.) (mice with EAE; DOX− double mice): 1.63 ± 0.51 | MBP mRNA in the spinal cord compared to age-matched naïve mice (mice with EAE; DOX− double mice, PID17, real-time PCR): not significantly decreased | Day of onset of disease (PID: postimmunization day) (mice with EAE; DOX− double mice): 14.7 ± 1.4 | Incidence of hind limb paralysis (mice with EAE; DOX− double mice, listed as INF-γ): 2 of 25 and 2/25 | Incidence of hind limb paralysis (mice with EAE; DOX− triple mice (PERK+/−)): 18/25 | Mean of maximum clinical score (mean ± S.D.) (mice with EAE; DOX− triple mice (PERK+/−)): 2.71 ± 1.11 | Day of onset of disease (PID: postimmunization day) (mice with EAE; DOX− triple mice (PERK+/−)): 13.6 ± 0.8 | expression of iNOs, TNF-a, IL-2, IL-12 and IL-10 in the spinal cord (mice with EAE): strongly enhanced | expression of iNOs, TNF-a, IL-2, IL-12 and IL-10 in the spinal cord (mice with EAE; listed as INF-γ): increased | expression of IL-2 and IL-5 in the spinal cord (mice with EAE; PID 14, DOX− vs DOX+): did not affect | CD3 positive T cell infiltration in the spinal cord (mice with EAE; at EAE onset): did not significantly affect | CD11b positive monocyte infiltration in the spinal cord (mice with EAE; at EAE onset): increased | CD11b positive monocyte infiltration (mice with EAE; at the peak of disease): did not change | expression of iNOs or TNF-γ (mice with EAE; at the peak of disease): did not significantly affect | EAE disease course (mice with EAE; mice heterozygous for the PERK mutation): did not ameliorate | PERK-eIF2α pathway in oligodendrocytes (p-PERK, p-eIF2α, CC1 colocalization) (mice with EAE; spinal cord, EAE onset): markedly activated | decrease of the levels of MBP [2]: approximately 80%
